Reference: patent publication EP0039388A2, “Diagnostic method for the determination of the liver function” (Röhm Pharma GmbH, priority 1980, dated 1981)
Entries after “also recorded” stand apart in the source; their conditions may differ. Read-outs that look alike come from different tables or passages of the source.

Assays:
Format in all cases: in vivo, Menschen
[1] = Ratio of TA to OH-TA-Ester in plasma and/or urine after oral administration of triamterene (liver function test); details: for Verhältnis des OH-TA-Esters zu TA: printed as (x):1
Excerpt: Es wurde gefunden, daß sich Einschränkungen der Leberfunktion mit sehr geringem Aufwand und mit großer diagnostischer und analytischer Sicherheit nachweisen lassen, wenn man 2,4,7-Triamino-6-phenylpteridin (Triamteren = TA) dem Patienten oral verabreicht und in geeignetem zeitlichen Abstand das Verhältnis TA zu OH-TA-Ester im Plasma und/oder im Urin des Patienten bestimmt. Bei normaler Leberfunktion beträgt das Verhältnis TA zu OH-TA-Ester 1:3 bis 1:10. […] Man findet demnach je nach Einschränkung der Leberfunktion mehr natives TA als OH-TA-Ester, was als eine direkte Auswirkung der gestörten Funktion der Leber zu metabolischer Umwandlung von körperfremden Stoffen im Organismus und damit als Indikator für die Leberfunktion überhaupt gewertet werden kann.
Die Verabreichung des Triamteren zur erfindungsgemäßen Bestimmung der Leberfunktionseinschränkung geschieht oral. Bei der Herstellung der Verabreichungsformen (Kapseln, Tabletten etc.) und der Verabreichung selbst, kann von den Erfahrungen mit Triamteren als Therapeutikum ausgegangen werden. Die zur Durchführung des erfindungsgemäßen diagnostischen Verfahrens benötigten Mengen an Triamteren können innerhalb gewisser Grenzen schwanken, beispielsweise zwischen 50 und 300 mg, vorzugsweise bis 100 mg. Zur Einhaltung standardisierter Bedingungen kann es zweckmäßig sein, gleichbleibende Quantitäten an Triamteren zu verabreichen. Dabei kann vorteilhaft von bereits auf dem Markt befindlichen Handelsformen (z. B. Kapseln mit 50 mg Triamteren Jatropur^R) Gebrauch gemacht werden.
(§1) Bei dem Test wurde darauf geachtet, daß die Versuchspersonen der gleichen Altersgruppe und dem gleichen Geschlecht angehörten und eine annähernd gleiche Nierenfunktion vorlag. Während der Versuchsperiode waren sie stationär aufgenommen und unterlagen denselben Ernährungsbedingungen. Außer den unumgänglich notwendigen, wurden alle anderen Medikamente, insbesondere Diuretika vor Versuchsbeginn abgesetzt.
Die Plasmahalbwertszeiten wurden nach der Formel t50 % = [formula] berechnet, die Flächen unter den Kurven konnten mit Hilfe der Trapezregel errechnet werden. […]

[2] = Urinary excretion of TA and OH-TA-Ester after oral triamterene
Excerpt: as §1
Die Durchführung des erfindungsgemäßen diagnostischen Verfahrens kann ebenfalls mit dem Urin der Patienten erfolgen. Während einer Versuchsdauer von 5 Tagen konnte TA und der OH-TA-Ester nachgewiesen werden.
Analog kann auch die Konzentration von TA und OH-TA-Ester im Urin bestimmt werden.

[3] = Plasma half-lives of TA and OH-TA-Ester after oral triamterene; details: for half-life: human, plasma, po, read-out: Plasmahalbwertszeiten (converted)
Excerpt: as §1
Die Plasmahalbwertszeiten wurden nach der Formel t50 % = [formula] berechnet, die Flächen unter den Kurven konnten mit Hilfe der Trapezregel errechnet werden.
Die Plasmaproben werden mit dem doppelten Volumen Methanol verdünnt, das ausfallende Protein ausgefällt. Vom Überstand wird ein definierter Anteil auf Kieselgel-Platten (z. B. Kieselgel-60-Fertigplatten "Merck") ohne Fluoresz.enzindi- kator aufgetragen. Anschließend wird mit dem Fließmittel Essigsäureethylester/Methanol/Ammoniak 25 %ig (60 + 30 + 10) bei Kammersättigung chromatographiert. Danach werden die Platten getrocknet und die Substanzen fluoreszenzspektroskopisch gemessen.

Row | Structure (SMILES) | Verhältnis des OH-TA-Esters zu TA ([1]; Lebergesunde) | Verhältnis des OH-TA-Esters zu TA ([1]; Leberzirrhotiker, ratio reversed in one cirrhotic) | Konzentration des OH-TA-Esters in Plasma höher als die der nativen Substanz Triamteren (TA) ([1]; subjects with healthy liver, plasma, fold over TA) | Ausscheidung im Harn beendet ([2]; Lebergesunde, time after which excretion has ended) [Stunden] | Ausscheidung im Harn nicht völlig abgeschlossen ([2]; Leberzirrhotiker, excretion still not fully complete at this time) [Tagen] | Nachweis im Urin ([2]; patients' urine, test duration of 5 days) | Plasmahalbwertszeiten, change in Leberzirrhotiker versus Lebergesunde ([3]; Leberzirrhotiker compared with Lebergesunde) | Ausscheidung im Harn beendet ([2]; in vivo) [Stunden] | Ausscheidung im Harn nicht völlig abgeschlossen ([2]; in vivo) [Tagen] | half-life ([3]; Lebergesunde) [h] | half-life ([3]; Leberzirrhotiker, average) [h]
1 | Nc1nc(N)c2nc(-c3ccc(OS(=O)(=O)O)cc3)c(N)nc2n1 [OH-TA-Ester] | 4-10 | 1-3,2 | vier- bis zwölffache | 72 | > 5 | nachgewiesen | auf das Doppelte verlängert; also recorded: deutlich erhöht, beispielsweise verdoppelt |  |  |  | 
2 | Nc1nc(N)c2nc(-c3ccccc3)c(N)nc2n1 [TA, 2,4,7-Triamino-6-phenylpteridin] |  |  |  |  |  |  |  | 72 | > 5 | ~5.5 | 11.2
